US11739326B2, “RUNX1 inhibition for treatment of proliferative vitreoretinopathy and conditions associated with epithelial to mesenchymal transition” (The Schepens Eye Research Institute, Inc., priority 2017, dated 2023)
Entries after “also recorded” stand apart in the source; their conditions may differ.

Key:
C-PVR cells [1] = assay: Ki67 staining of C-PVR cells (cell number and proliferative capacity); type: cell-based, human; details: Ro5-3335 150 μM, 48 hours, vs vehicle
Protocol: C-PVR (e.g., case 5) cells were transfected with the siRUNX1 or siScramble for 48 hours and washed and fixed with 4% paraformaldehyde for 10 minutes at room temperature. The cells were washed with PBS and blocked for an hour in (10% goat serum in PBS) incubated with rabbit anti-Ki67 antibody (1:50; Novus Biologicals) overnight at 4 degrees. Cells were incubated with secondary antibody goat anti-rabbit 594 (1:300; Life Technologies) for 2 hours along with DAPI, then were washed and imaged (FIG. 7A-7I; quantitation depicted in FIG. 8).
C-PVR cells (e.g., case 5) were cultured in 48 well plates for 24, followed by treatment with 150 μM RUNX1 inhibitor (Ro5-3335, Calbiochem), or vehicle only for a period of 48 hours. The cells were washed and fixed with 4% paraformaldehyde for 10 minutes at room temperature. The cells were washed with PBS and blocked for an hour in (10% goat serum in PBS) incubated with rabbit anti-Ki67 antibody (1:50; Novus Biologicals) overnight at 4 degrees. Cells were incubated with secondary antibody goat anti-rabbit 594 (1:300; Life Technologies) for 2 hours along with DAPI, washed, imaged and quantified using Image J (FIGS. 9A and 9B).
C-PVR cells (e.g., case 5) were cultured in 48 well plates for 24, followed by treatment with 150 μM RUNX1 inhibitor (Ro5-3335, Calbiochem), or vehicle only for a period of 48 hours. […]

human PVR membranes = assay: Human PVR membrane explant model in Matrigel; type: cell-based; details: Ro5-3335 150 μM, combination with methotrexate 400 μM; for growth of human PVR membranes in explant model: vs control (DMSO)
Protocol: (§1) PVR membranes were freshly obtained from patients and placed in growth factor-reduced Matrigel (BD Biosciences) seeded in 24 well plates. 30 μl of matrigel were used to coat the bottom of 24 well plates without touching the edges of the well. After seeding the PVR membrane, explant plates were incubated in a 37° C. cell incubator without medium for 10 minutes in order for the Matrigel to solidify. 500 μl of medium was added to each well and incubated at 37° C. with 5% CO2. The explants were treated with RUNX1 inhibitor (Ro5-3335). Phase contrast photos of individual explants were taken daily.
as §1, with “from patients,” for “from patients and”, “(BD Biosciences), and” for “(BD Biosciences)”, “matrigel was” for “matrigel were”, “After seeding,” for “After seeding”, “PVR membrane” for “PVR membrane,”, “inhibitor (Ro5-3335) or a combination of Ro5-3335 and methotrexate.” for “inhibitor (Ro5-3335).”

ARPE-19 cells [2] = assay: Growth factor-induced EMT in ARPE-19 cells (morphology, marker immunofluorescence); type: cell-based; details: TGFβ2, TNFα
Protocol: ARPE-19 cells were grown to confluence and maintained in 1% serum for 7-10 days (FIG. 22). Cells were treated with growth factors TGFβ2, TNFα and IL-6 (10 ng/ml each) for 3 days, with 150 μM RUNX1 inhibitor (Ro5-3335, Calbiochem) or without (e.g., vehicle). […] EMT was determined by morphological changes including cell shape.
Furthermore, treatment with RUNX1 small molecule inhibitor, Ro5-335, in ARPE-19 cells prevented EMT. This was assessed by the reduction in the epithelial marker, cytokeratin, and an increase in the mesenchymal markers such as fibronectin, and smooth muscle actin (FIGS. 23A and 23B). ARPE-19 cells were grown to confluence and maintained in 1% for 7-10 days. Cells were treated with TGFβ2, TNFα, and a combination of TGFβ2, TNFα and IL-6 (10 ng/ml each) for 3 days with or without 150 uM RUNX1 inhibitor (Ro5-3335, Calbiochem) or vehicle. Cells were washed and fixed with 4% paraformaldehyde for 10 minutes at room temperature. Cells were incubated with primary antibodies, mouse anti-cytokeratin (1:250; Abcam), or rabbit anti-fibronectin (1:500, Sigma) or smooth muscle actin (1:50; DAKO) overnight at 4° C. […]
ARPE-19 cells were grown to 60-70% confluence. […] EMT was determined by morphological changes (e.g., cell shape).

ARPE-19 cells [3] = assay: CyQuant cell proliferation assay in ARPE-19 cells; type: cell-based; details: for percent live cells: Ro5-3335 100, 50, 25 μM, methotrexate 400, 100, 10 μM, alone or in combination vs vehicle
Protocol: (§2) ARPE 19 cells were cultured in 96 well plates for 8 hours, followed by treatment with RUNX1 inhibitor (Ro5-3335, Calbiochem) or Methotrexate (Sigma) in growth media or vehicle only for a period of 24 or 48 hours. The cells were washed and the CyQuant Direct nucleic acid stain was added and incubated at 37° C. in the incubator. Fluorescence read outs were measured at wavelengths as instructed in the protocol.

C-PVR cells [4] = assay: CyQuant cell proliferation assay in C-PVR cells; type: cell-based, human; details: for percent live cells: C-PVR, Ro5-3335 100, 50, 25 μM, methotrexate 400, 100, 10 μM, alone or in combination vs vehicle
C-PVR cells [5] = assay: CyQuant cell proliferation assay in C-PVR cells; type: cell-based, human; details: for proliferation / percent live cells of C-PVR cells: 72 hours, vs vehicle
Protocol: as §2
A CyQuant Cell Proliferation Assay was performed 48 and 72 hours post-treatment, with lenalidomide at 40 nM, and 80 nM. […] C-PVR cells were cultured in 96 well plates for 8 hours, followed by treatment with lenalidomide (Sigma-Aldrich) in growth media or vehicle only for a period of 48 or 72 hours. The cells were washed, and CyQuant Direct and nucleic acid stain was added and incubated at 37° C. Fluorescence read outs were measured at wavelengths as instructed in the protocol.

Compound	cell number and proliferative capacity of C-PVR cells (Ki67 staining) (C-PVR cells [1])	cell number and proliferative capacity of C-PVR cells (Ki67 staining) (C-PVR cells [1]; listed as Ro5-335)	detachment of the branches from the primary tissue in human PVR explants (human PVR membranes)	branching, regression of branches and apoptosis in human PVR explants (human PVR membranes; vs DMSO)	growth of human PVR membranes in explant model (human PVR membranes)	growth of human PVR membranes in explant model (human PVR membranes; listed as Ro5-335)	EMT determined by morphological changes including cell shape (ARPE-19 cells [2]; IL-6 (10 ng/ml each) 3 days, Ro5-3335 150 μM vs vehicle)	EMT assessed by cytokeratin, fibronectin and smooth muscle actin immunofluorescence (ARPE-19 cells [2]; combination with IL-6 (10 ng/mL each) 3 days, Ro5-3335 150 uM)	efficacy at inhibiting growth of ARPE-19 cells compared to methotrexate (ARPE-19 cells [3]; 24 or 48 hours)	percent live cells (ARPE-19 cells [3]; ARPE-19, 24 hours)	percent live cells (ARPE-19 cells [3]; ARPE-19, 48 hours)	efficacy at inhibiting growth of C-PVR cells compared to methotrexate (C-PVR cells [4]; 24 or 48 hours)	percent live cells (C-PVR cells [4]; 24 hours)	percent live cells (C-PVR cells [4]; 48 hours)	proliferation of C-PVR cells (C-PVR cells [5]; 40 nM, 48 hours)	proliferation / percent live cells of C-PVR cells (C-PVR cells [5]; 40 nM)	proliferation of C-PVR cells (C-PVR cells [5]; 80 nM, 48 hours)	proliferation / percent live cells of C-PVR cells (C-PVR cells [5]; 80 nM)	proliferation of C-PVR cells (C-PVR cells [5]; 40 and 80 nM, 48 and 72 hours (summary statement))	proliferation of C-PVR cells (C-PVR cells [5]; 40 and 80 nM, 48 and 72 hours (summary statement), listed as Lenlidomide)
O=C1CN=C(c2ccc[nH]2)c2cc(Cl)ccc2N1 [Ro5-3335]	significant reduction in the cell number and proliferative capacity	significant reduction in the cell number and proliferative capacity	Detachment of the branches from the primary tissue was also observed	apoptosis, less branching and a faster regression of the branches; also recorded: Less branching, a faster regression of the branches and apoptosis	significant reduction of human PVR; also recorded: no growth after 4 days; also recorded: reduced growth of human PVR membranes	reduced the growth of human PVR membranes; also recorded: now growth after four days	either no or reduced EMT	prevented EMT	more efficacious at inhibiting growth of ARPE-19 cells; also recorded: more efficacious than treatment with methotrexate	significant reduction in percent live cells	significant reduction in percent live cells	more efficacious than treatment with methotrexate at inhibiting growth of C-PVR cells	significant reduction in percent live cells	significant reduction in percent live cells						
Nc1cccc2c1CN(C1CCC(=O)NC1=O)C2=O (stereo not drawn) [lenalidomide, 3-(7-amino-3-oxo-1H-isoindol-2-yl)piperidine-2,6-dione]															inhibited proliferation	significant reduction in percent live cells	inhibited proliferation	significant reduction in percent live cells	significantly reduced proliferation	inhibited proliferation
CN(Cc1cnc2nc(N)nc(N)c2n1)c1ccc(C(=O)N[C@@H](CCC(=O)O)C(=O)O)cc1 [methotrexate]										significant reduction in percent live cells	significant reduction in percent live cells		significant reduction in percent live cells	significant reduction in percent live cells						
